# According to publication PMC11870037 (Molecules, 2024):
# Legend:
# [1] = target: T1, M2 muscarinic receptor (Homo sapiens, UniProt P08172); assay: Muscarinic M2 receptor binding (lymphocyte suspension); conditions: lymphocyte suspension and sections
# T1 construct: blood lymphocytes were used at a concentration of 1 × 10⁶ cells; endogenous in cells; host or cells: peripheral blood lymphocytes
# [2] = target: T2, SERT (Rattus norvegicus, UniProt P31652); assay: Monoamine uptake transporter assay, [3H]5-HT uptake by SERT; format: biochemical
# T2 construct: [3H]-paroxetine, rat cerebral cortex; from tissue; host or cells: rat cerebral cortex (membranes / crude synaptosomes)
# [3] = target: adrenergic α1 receptor; assay: Adrenergic α1 receptor binding assay ([3H]prazosin); conditions: rat cerebral cortex, means ± SEM of three experiments, read-out: Receptor Affinity Ki ± SEM α1
# [4] = target: Histamine H2 receptor (Homo sapiens, UniProt P25021); assay: Histamine H2 receptor binding ([3H]tiotidine, Sf9 membranes); conditions: Sf9 cells and membrane
# [5] = target: T3, muscarinic M1 receptor (Homo sapiens, UniProt P11229); assay: Muscarinic M1 receptor binding (peripheral blood lymphocytes); conditions: lymphocyte suspension and sections
# T3 construct: blood lymphocytes were used at a concentration of 1 × 10⁶ cells; endogenous in cells; host or cells: peripheral blood lymphocytes
# [6] = test system: mice; assay: Tail suspension test (TST); format: in vivo, mouse; conditions: oral, immobility duration
# [7] = target: NET (Rattus norvegicus, UniProt Q63380); assay: Monoamine uptake transporter assay, [3H]NE uptake by NET; format: biochemical
# [8] = Pharmacokinetic study in rats; format: in vivo; conditions: rat, plasma
# Method: 7. Pharmacokinetics Study
# The HPLC conditions were as follows: Shimadzu LC30AD spectrometer ; column, SHIMADZU C18 (2.1 mm×50 mm, 2 μm); mobile phase A: 0.1% FA-Acetonitrile; mobile phase B: 0.1% FA-Deionized water; ﬂow rate, 0.4 mL/min; column temperature: 25 °C; UV detection was performed at 210 nm. The Mass conditions were as follows: ESI (positive), Ion spray voltage: 5500V, Curtain gass: 30, Temperature: 550°C, Ion Source Gas1: 55, Collision Gas: 7. For routine compound 11b screening, rats (n = 6/group) were dosed via the lateral tail vein at the indicated dose for iv administration (2 mg/kg, NS) or via oral gavage (20 mg/kg, Deionized water). At 0, 0.08, 0.25, 0.5,1、2、4、7、10 and 24h after administration, serial blood samples were collected from the lateral tail vein into heparinized collection tubes (approximately 0.25 mL). The plasma was separated by centrifugation, and the sample was prepared for LC/MS analysis by protein precipitation with acetonitrile. The plasma samples were analyzed for drug and internal standard via the LCMS/MS protocol.
# [9] = target: NMDA receptor (Rattus norvegicus, UniProt P35439); assay: NMDA receptor binding; conditions: read-out: Ki NDMA
# [10] = target: Dopamine D2 receptor (Rattus norvegicus, UniProt P61169); assay: Dopamine D2 receptor binding ([3H]spiperone); conditions: rat striatum
# [11] = target: Adrenergic α2 receptor; assay: Adrenergic α2 receptor binding ([3H]-rauwolscine); conditions: rat cerebral cortex
# [12] = target: T4, Serotonin 5-HT2C receptor (Rattus norvegicus, UniProt P08909); assay: Serotonin 5-HT2C receptor binding ([3H]mesulergine); conditions: rat brain cortex
# T4 construct: The cerebral cortex of a rat was processed by homogenization; from tissue; host or cells: rat cerebral cortex membranes
# [13] = target: Dopamine transporter (Rattus norvegicus, UniProt P23977); assay: Dopamine transporter binding ([3H]-WIN35,428); conditions: rat striatum; read-out: Ki DAT
# [14] = target: T5, Dopamine D3 receptor (Rattus norvegicus, UniProt P19020); assay: Dopamine D3 receptor binding ([3H]7-OH-DPAT); conditions: rat olfactory tubercle
# T5 construct: A rat olfactory tubercle was homogenized in 20 volumes of ice; from tissue; host or cells: rat olfactory tubercle membranes
# T5 sequence (P19020 whole entry): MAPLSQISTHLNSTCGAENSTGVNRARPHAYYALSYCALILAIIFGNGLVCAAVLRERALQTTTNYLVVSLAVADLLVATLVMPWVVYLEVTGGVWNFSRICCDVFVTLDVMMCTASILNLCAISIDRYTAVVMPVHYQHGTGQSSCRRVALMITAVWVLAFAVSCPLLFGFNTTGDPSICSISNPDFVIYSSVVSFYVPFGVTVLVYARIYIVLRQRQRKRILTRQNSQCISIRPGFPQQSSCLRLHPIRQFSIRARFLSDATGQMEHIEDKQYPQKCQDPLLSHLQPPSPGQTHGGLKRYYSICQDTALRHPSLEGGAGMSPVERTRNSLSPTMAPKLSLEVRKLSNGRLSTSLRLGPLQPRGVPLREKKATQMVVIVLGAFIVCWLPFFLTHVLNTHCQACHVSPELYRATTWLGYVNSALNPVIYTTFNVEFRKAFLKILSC
# Chain of NET (Q63380 1-617): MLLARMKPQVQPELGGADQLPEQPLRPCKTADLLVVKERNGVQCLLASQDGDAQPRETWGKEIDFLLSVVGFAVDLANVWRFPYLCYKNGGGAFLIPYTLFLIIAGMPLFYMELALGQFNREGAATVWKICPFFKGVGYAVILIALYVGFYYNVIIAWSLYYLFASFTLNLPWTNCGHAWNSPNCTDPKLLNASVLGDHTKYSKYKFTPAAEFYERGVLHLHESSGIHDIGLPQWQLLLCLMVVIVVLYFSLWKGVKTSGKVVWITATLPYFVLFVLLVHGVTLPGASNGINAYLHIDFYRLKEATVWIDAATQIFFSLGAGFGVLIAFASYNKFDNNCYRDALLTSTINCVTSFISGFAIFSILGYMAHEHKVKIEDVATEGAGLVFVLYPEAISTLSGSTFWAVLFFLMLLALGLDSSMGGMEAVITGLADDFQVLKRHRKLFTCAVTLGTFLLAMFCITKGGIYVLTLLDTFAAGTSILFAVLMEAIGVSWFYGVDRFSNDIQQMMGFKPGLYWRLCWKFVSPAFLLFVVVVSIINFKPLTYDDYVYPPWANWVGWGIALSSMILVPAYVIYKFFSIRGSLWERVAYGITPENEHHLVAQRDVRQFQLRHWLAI
# T2 sequence (P31652 whole entry): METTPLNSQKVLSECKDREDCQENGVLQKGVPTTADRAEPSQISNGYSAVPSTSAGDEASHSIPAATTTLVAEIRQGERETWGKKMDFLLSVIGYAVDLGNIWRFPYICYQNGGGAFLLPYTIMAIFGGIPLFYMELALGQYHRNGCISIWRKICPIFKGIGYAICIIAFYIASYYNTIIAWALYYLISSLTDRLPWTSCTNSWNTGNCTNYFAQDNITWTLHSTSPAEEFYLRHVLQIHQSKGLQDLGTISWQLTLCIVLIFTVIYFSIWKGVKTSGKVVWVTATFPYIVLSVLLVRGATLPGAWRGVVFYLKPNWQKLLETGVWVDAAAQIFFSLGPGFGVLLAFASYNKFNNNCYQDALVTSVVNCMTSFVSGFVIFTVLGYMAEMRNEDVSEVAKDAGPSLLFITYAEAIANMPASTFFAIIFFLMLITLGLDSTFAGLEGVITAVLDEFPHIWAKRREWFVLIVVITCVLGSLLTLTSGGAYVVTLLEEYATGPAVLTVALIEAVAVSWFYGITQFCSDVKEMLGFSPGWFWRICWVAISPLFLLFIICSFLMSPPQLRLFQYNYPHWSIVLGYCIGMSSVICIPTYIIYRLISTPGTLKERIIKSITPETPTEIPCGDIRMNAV
# T3 sequence (P11229 whole entry): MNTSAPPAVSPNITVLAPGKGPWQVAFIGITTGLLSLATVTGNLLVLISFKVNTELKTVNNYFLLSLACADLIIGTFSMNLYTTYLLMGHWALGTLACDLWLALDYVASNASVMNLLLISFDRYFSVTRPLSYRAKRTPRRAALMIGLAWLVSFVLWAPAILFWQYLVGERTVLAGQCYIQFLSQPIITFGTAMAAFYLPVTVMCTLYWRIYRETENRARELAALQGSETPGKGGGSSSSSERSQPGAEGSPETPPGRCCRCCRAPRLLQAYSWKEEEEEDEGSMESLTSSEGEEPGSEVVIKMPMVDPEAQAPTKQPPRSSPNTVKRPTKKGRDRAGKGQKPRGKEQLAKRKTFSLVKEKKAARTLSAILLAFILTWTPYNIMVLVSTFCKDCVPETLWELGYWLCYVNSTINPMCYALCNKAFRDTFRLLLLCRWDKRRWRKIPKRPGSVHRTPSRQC
# Chain of Histamine H2 receptor (P25021 whole entry): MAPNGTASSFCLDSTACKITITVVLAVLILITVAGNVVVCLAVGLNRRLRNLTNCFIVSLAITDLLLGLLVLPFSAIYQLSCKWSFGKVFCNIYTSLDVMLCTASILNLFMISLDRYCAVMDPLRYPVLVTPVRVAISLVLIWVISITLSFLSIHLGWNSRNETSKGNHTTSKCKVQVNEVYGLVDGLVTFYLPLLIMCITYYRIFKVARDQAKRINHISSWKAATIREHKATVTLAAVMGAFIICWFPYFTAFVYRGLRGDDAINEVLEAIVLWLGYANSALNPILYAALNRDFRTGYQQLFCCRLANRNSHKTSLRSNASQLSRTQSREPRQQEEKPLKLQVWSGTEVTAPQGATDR
# Chain of Dopamine transporter (P23977 whole entry): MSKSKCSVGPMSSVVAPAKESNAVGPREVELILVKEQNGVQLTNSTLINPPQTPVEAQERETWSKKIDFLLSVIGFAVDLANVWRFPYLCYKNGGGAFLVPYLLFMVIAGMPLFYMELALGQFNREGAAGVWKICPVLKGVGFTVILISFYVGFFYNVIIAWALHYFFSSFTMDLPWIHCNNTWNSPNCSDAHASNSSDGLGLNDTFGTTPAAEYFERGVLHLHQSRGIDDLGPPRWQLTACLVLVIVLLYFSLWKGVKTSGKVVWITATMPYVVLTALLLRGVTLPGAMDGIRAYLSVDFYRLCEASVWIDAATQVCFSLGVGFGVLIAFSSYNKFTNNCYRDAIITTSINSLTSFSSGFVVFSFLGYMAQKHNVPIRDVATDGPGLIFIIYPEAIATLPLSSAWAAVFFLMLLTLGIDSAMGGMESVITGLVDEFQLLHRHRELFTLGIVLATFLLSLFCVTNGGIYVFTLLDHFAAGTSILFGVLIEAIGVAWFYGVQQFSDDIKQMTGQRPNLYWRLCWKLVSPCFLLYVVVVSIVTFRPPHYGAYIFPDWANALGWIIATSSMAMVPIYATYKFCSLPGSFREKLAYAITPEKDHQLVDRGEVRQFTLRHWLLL
# T4 sequence (P08909 33-460): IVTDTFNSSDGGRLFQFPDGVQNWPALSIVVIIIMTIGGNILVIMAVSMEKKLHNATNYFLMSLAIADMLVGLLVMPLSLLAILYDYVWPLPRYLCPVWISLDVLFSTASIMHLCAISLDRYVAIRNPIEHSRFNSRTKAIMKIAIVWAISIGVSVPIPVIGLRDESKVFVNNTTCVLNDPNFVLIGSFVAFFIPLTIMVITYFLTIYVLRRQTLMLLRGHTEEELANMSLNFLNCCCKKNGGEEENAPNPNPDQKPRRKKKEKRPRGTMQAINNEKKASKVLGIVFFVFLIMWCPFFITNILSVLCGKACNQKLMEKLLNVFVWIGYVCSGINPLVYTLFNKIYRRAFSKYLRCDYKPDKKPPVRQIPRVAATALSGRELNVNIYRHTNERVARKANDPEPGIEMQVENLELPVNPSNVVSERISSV
# T1 sequence (P08172 whole entry): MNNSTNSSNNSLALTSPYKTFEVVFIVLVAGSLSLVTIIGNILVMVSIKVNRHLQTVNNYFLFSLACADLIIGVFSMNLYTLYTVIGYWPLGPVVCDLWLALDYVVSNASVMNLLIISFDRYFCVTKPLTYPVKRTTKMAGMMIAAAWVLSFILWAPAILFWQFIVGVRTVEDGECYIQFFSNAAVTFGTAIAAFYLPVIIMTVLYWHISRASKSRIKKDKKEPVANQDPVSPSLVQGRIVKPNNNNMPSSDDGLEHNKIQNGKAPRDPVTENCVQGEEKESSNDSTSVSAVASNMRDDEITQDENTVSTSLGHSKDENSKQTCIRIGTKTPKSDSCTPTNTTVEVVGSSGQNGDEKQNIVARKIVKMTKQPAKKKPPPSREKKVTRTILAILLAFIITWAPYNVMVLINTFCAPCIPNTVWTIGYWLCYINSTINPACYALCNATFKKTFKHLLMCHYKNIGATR
# Chain of Dopamine D2 receptor (P61169 1-415 isoform P61169-2): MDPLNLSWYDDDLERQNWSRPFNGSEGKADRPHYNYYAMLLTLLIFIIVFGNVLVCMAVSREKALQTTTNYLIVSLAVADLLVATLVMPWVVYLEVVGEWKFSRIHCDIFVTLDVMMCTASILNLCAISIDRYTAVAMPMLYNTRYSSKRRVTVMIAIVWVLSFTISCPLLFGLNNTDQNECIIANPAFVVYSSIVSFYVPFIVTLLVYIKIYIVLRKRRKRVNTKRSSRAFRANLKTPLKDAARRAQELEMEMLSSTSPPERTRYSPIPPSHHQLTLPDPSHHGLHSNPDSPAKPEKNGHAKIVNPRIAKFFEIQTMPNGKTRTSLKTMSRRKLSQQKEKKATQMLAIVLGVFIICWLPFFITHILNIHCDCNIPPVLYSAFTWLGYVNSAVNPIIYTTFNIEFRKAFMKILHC
structure (smiles),measurement,setting,value
"CN(C)CCC(Oc1cccc2c1OCO2)c1ccc(OCCCN2CCCCC2)cc1.O=C(O)C(=O)O (stereo not drawn) [Compound 11b, 3-(benzo[d][1,3]dioxol-4-yloxy)-N,N-dimethyl-3-(4-(3-(piperidin-1-yl)propoxy)phenyl)propan-1-amine oxalate]",Ki,[1],> 1000 nM
same,"Activation (10 μM, %) SERT","[2]; 10 μM, n = 3",4.4 ± 0.3%
same,inhibition at 10 µM,"[2]; 10 μM, n = 3",> 90%
same,IC50,"[2]; [3H]5-HT uptake, antagonist assay",20.1 nM
same,Ki,[3],1170 ± 126 nM
same,Ki,[4],> 1000 nM
same,Ki,[5],> 1000 nM
same,minimal effective dose (MED) in TST,[6],10 mg/kg
same,"Activation (10 μM, %) NET","[7]; 10 μM, n = 3",2.7 ± 0.2%
same,inhibition at 10 µM,"[7]; 10 μM, n = 3",> 90%
same,IC50,"[7]; [3H]NE uptake, antagonist assay",49.6 nM
same,AUC(0-inf),[8]; 2 mg/kg iv,265 ng·h/mL
same,AUC(0-t),[8]; 2 mg/kg iv,261 ng·h/mL
same,Cmax,[8]; 2 mg/kg iv,224 ng/mL
same,MRT last,[8]; 2 mg/kg iv,1.2 h
same,Tmax,[8]; 2 mg/kg iv,0.08 h
same,half-life,[8]; 2 mg/kg iv,1.3 h
same,AUC(0-inf),[8]; 20 mg/kg po,944 ng·h/mL
same,AUC(0-t),[8]; 20 mg/kg po,942 ng·h/mL
same,Cmax,[8]; 20 mg/kg po,134 ng/mL
same,MRT last,[8]; 20 mg/kg po,5.4 h
same,Tmax,[8]; 20 mg/kg po,2 h
same,half-life,[8]; 20 mg/kg po,2.6 h
same,bioavailability,"[8]; 20 mg/kg po vs 2 mg/kg iv, read-out: F (bioavailability)",35.6%
same,Ki,[9],> 1000 nM
same,Ki,[10],> 1000 nM
same,Ki,[11],> 1000 nM
same,Ki,[12],> 1000 nM
same,Ki,[13],> 1000 nM
same,Ki,[14],> 1000 nM
